Source: US5686472A, “Inhibitors of farnesyl-protein transferase” (Merck & Co., Inc., priority 1993, dated 1997)

Tests used:
[1] = target: recombinant human farnesyl transferase (Homo sapiens, UniProt P49354+P49356); experiment: In vitro inhibition of ras farnesyl transferase; assay type: biochemical; settings: concentration of test compound giving 50% inhibition of FTase, Table 1, read-out: IC50 (inhibition of RAS farnesylation)
Description: In vitro inhibition of ras farnesyl transferase
The assay was conducted as described in Pompliano, et. al., Biochemistry 31, 3800 (1992) with the exception of utilizing recombinant human farnesyl transferase in place of the partially purified bovine enzyme described therein.
*(IC50 is the concentration of the test compound which gives 50%
inhibition of FTase under the described assay conditions.

[2] = tested on: RAS farnesylation in the v-ras cell line; experiment: In vivo ras farnesylation assay (inhibition of RAS farnesylation in the v-ras cell line); assay type: cell-based; settings: 4 h at 37° C. before labelling, additional 20 h, Table 2
Description: In vivo ras farnesylation assay
The cell line used in this assay was the v-ras line, which expressed viral Ha-ms p21. The assay was performed essentially as described in DeClue, J. E. et. al., Cancer Research 51, 712-717, (1991). Cells in 10 cm dishes at 50-75% confluency were treated with the test compound (final concentration of solvent, methanol or dimethyl sulfoxide, was 0.1%). After 4 hours at 37° C., the cells were labelled in 3 ml methionine-free DMEM supplemented with 10% regular DMEM, 2% fetal bovine serum and 400 μCi[^35 S]methionine (1000 Ci/mmol). After an additional 20 hours, the cells were lysed in 1 ml lysis buffer (1% NP40/20 mM HEPES, pH 7.5/5 mM Mg/Cl2 /1mM DTT/10 μg/ml aprotinen/2 μg/ml leupeptin/2 μg/ml antipain/0.5 mM PMSF) and the lysates cleared by centrifugation at 100,000×g for 45 minutes. Aliquots of lysates containing equal numbers of acid-precipitable counts were bought to 1 ml with IP buffer (lysis buffer lacking DTT) and immunoprecipitated with the ras-specific monoclonal antibody Y13-259 (Furth, M. E. et. al., J. Virol. 43, 294-304, (1982)). Following a 2 hour antibody incubation at 4° C., 200 μl of a 25% suspension of protein A-Sepharose coated with rabbit anti rat IgG was added for 45 minutes. The immunoprecipitates were washed four times with IP was buffer ([…] HEPES, pH 7.5/1 mN EDTA/1% Triton X-100.0.5% deoxycholate/0.1%/SDS.0.1M NaCl) boiled in SDS-Page sample buffer and loaded on 13% acrylamide gels. When the dye front reached the bottom, the gel was fixed, soaked in Enlightening, dried and autoradiographed. The intensities of the bands corresponding to farnesylated and nonfarnesylated ras proteins were compared to determine the percent inhibition of farnesyl transfer to protein.

[3] = Observation on the isolated TFA salt (hygroscopicity, stability in solution); assay type: physicochemical

Row | Structure (SMILES) | IC50 [1] | IC50 [2] | further results
1 | C=CC[C@H](OC[C@@H](NC[C@@H](N)CS)[C@@H](C)CC)C(=O)N[C@@H](CCO)C(=O)O | 18 nM | – | –
2 | CC[C@H](C)[C@@H](CO[C@@H](Cc1ccccc1)C(=O)N[C@@H](CCS(C)(=O)=O)C(=O)OC(C)C)NC[C@@H](N)CS [2(S)-[2(S)-[2(R)-Amino-3-mercapto]-propylamino-3(S)-methyl]pentyloxy-3-phenylpropionyl-methionine sulfone isopropyl ester] | – | 100 nM | –
3 | CC[C@H](C)[C@@H](CO[C@@H](Cc1ccccc1)C(=O)N[C@@H](CCS(C)(=O)=O)C(=O)O)NC[C@@H](N)CS [2(S)-[2(S)-[2(R)-Amino-3-mercapto]propylamino-3(S)-methyl]-pentyloxy-3-phenylpropionyl-methionine sulfone] | 2.2 nM | – | –
4 | C=CC[C@H](OC[C@@H](NC[C@@H](N)CS)[C@@H](C)CC)C(=O)N[C@H]1CCOC1=O [2(S)-[2(S)-[2(R)-Amino-3-mercapto]propylamino-3(S)-methyl]-pentyloxy-4-pentenoyl-homoserine lactone] | – | 10000 nM | –
5 | CC[C@H](C)[C@@H](CO[C@@H](CC(C)C)C(=O)N[C@H]1CCOC1=O)NC[C@@H](N)CS [2(S)-[2(S)-[2(R)-Amino-3-mercapto]propylamino-3(S)-methyl]pentyloxy4-methylpentanoyl-homoserine lactone] | – | 10000 nM | –
6 | CC[C@H](C)[C@@H](CO[C@@](C)(Cc1ccccc1)C(=O)N[C@H]1CCOC1=O)NC[C@@H](N)CS [2(S)-[2(S)-[2(R)-Amino-3-mercapto]propylamino-3(S)-methyl]pentyloxy-2-methyl-3-phenylpropionyl-homoserine lactone] | – | 50000 nM | –
7 | CC[C@H](C)[C@@H](CO[C@@H](Cc1ccccc1)C(=O)N[C@H]1CCOC1=O)NC[C@@H](N)CS [2(S)-[2(S)-[2(R)-Amino-3-mercapto]propylamino-3(S)-methyl]pentyloxy-3-phenylpropionyl-homoserine lactone] | – | 2500 nM | hygroscopicity [3]: hygroscopic; stability (disulphide formation) ([3]; left in solution and exposed to air): prone to disulphide formation if left in solution and exposed to air
8 | CC[C@H](C)[C@@H](CO[C@@H](Cc1ccccc1)C(=O)N[C@@H](CCSC)C(=O)OC)NC[C@@H](N)CS [2(S)-[2(S)-[2(R)-Amino-3-mercapto]propylamino-3(S)-methyl]pentyloxy-3-phenylpropionyl-methionine methyl ester] | – | 100 nM | –
9 | CC[C@H](C)[C@@H](CO[C@@H](Cc1ccccc1)C(=O)N[C@@H](CCS(C)(=O)=O)C(=O)OC)NC[C@@H](N)CS [2(S)-[2(S)-[2(R)-Amino-3-mercapto]propylamino-3(S)-methyl]pentyloxy-3-phenylpropionyl-methionine sulfone methyl ester] | – | 100 nM | –
10 | CCC[C@H](OC[C@@H](NC[C@@H](N)CS)[C@@H](C)CC)C(=O)N[C@H]1CCOC1=O [2(S)-[2(S)-[2(R)-Amino-3-mercapto]propylamino-3(S)-methyl]pentyloxy-pentanoyl-homoserine lactone] | – | 10000 nM | –

The next lines start with results.

Row | IC50 [1] | Structure (SMILES) | IC50 [2] | further results
11 | 7 nM | CCC[C@H](OC[C@@H](NC[C@@H](N)CS)[C@@H](C)CC)C(=O)N[C@@H](CCO)C(=O)O [2(S)-[2(S)-[2(R)-Amino-3-mercapto]propylamino-3(S)-methyl]-pentyloxy-pentanoyl-homoserine] | – | –
12 | 980 nM | CC[C@H](C)[C@@H](CS(=O)(=O)[C@@](C)(Cc1ccccc1)C(=O)N[C@@H](CCO)C(=O)O)NC[C@@H](N)CS [2(S)-[2(S)-[2(R)-Amino-3-mercapto]propylamino-3(S)-methyl]pentyl-sulfonyl-2-methyl-3-phenylpropionyl-homo-serine] | – | –
13 | 7 nM | CC[C@H](C)[C@@H](CO[C@@](C)(Cc1ccccc1)C(=O)N[C@@H](CCO)C(=O)O)NC[C@@H](N)CS [2(S)-[2(S)-[2(R)-Amino-3-mercapto]propylamino-3(S)-methyl]pentyloxy-2-methyl-3-phenylpropionyl-homoserine] | – | –
14 | 1.4 nM | CC[C@H](C)[C@@H](CO[C@H](C(=O)N[C@@H](CCO)C(=O)O)C(C)C)NC[C@@H](N)CS [2(S)-[2(S)-[2(R)-Amino-3-mercapto]propylamino-3(S)-methyl]pentyloxy-3-methylbutanoyl-homoserine] | – | –
15 | 17 nM | CC[C@H](C)[C@@H](CO[C@H](C(=O)N[C@@H](CCO)C(=O)O)C(C)c1ccccc1)NC[C@@H](N)CS (stereo partly drawn) [2(S)-[2(S)-[2(R)-Amino-3-mercapto]propylamino-3(S)-methyl]pentyloxy-3-phenylbutanoyl-homoserine] | – | –
16 | 5 nM | CC[C@H](C)[C@@H](CO[C@@H](Cc1ccccc1)C(=O)N[C@@H](CCO)C(=O)O)NC[C@@H](N)CS [2(S)-[2(S)-[2(R)-Amino-3-mercapto]propylamino-3(S)-methyl]pentyloxy-3-phenylpropionyl-homoserine] | – | –
17 | 4 nM | CC[C@H](C)[C@@H](CO[C@@H](Cc1ccccc1)C(=O)N[C@@H](CCSC)C(=O)O)NC[C@@H](N)CS [2(S)-[2(S)-[2(R)-Amino-3-mercapto]propylamino-3(S)-methyl]pentyloxy-3-phenylpropionyl-methionine] | – | –
18 | 19 nM | CC[C@H](C)[C@@H](CO[C@@H](CC(C)C)C(=O)N[C@@H](CCO)C(=O)O)NC[C@@H](N)CS [2(S)-[2(S)-[2(R)-Amino-3-mercapto]propylamino-3(S)-methyl]pentyloxy-4-methylpentanoyl-homoserine] | – | –
19 | 240 nM | CC[C@H](C)[C@@H](CS[C@@](C)(Cc1ccccc1)C(=O)N[C@@H](CCO)C(=O)O)NC[C@@H](N)CS [2(S)-[2(S)-[2(R)-Amino-3-mercapto]propylamino-3(S)-methyl]pentylthio-2-methyl-3-phenylpropionyl-homoserine] | – | –
